Data: patent US10512676B2, “Formulations comprising recombinant acid alpha-glucosidase” (Amicus Therapeutics, Inc., priority 2016, dated 2019)

Tests used:
[1] = Plasma miglustat pharmacokinetics, phase 1/2 study in adults with Pompe disease; type: in vivo, human; conditions: for CL/F: arithmetic mean (CV %)
Experimental: Mean total GAA protein and miglustat PK results from the first 8 Cohort 1 patients through Visit 9 and the first 2 Cohort 3 patients were assessed.

CIMPR = CIMPR (Homo sapiens, UniProt P11717); test: CIMPR affinity chromatography (CIMPR column, free M6P gradient); type: binding; conditions: fraction of total enzyme by GAA activity; for rhGAA that did not bind to the CIMPR: eluted prior to addition of M6P
Experimental: To evaluate the ability of the rhGAA in Myozyme® and Lumizyme®, the only currently approved treatments for Pompe disease, these rhGAA preparations were injected onto a CIMPR column (which binds rhGAA having M6P groups) and subsequently eluted with a free […] gradient. Fractions were collected in 96-well plate and GAA activity assayed by 4MU-α-glucose substrate. The relative amounts of bound and unbound rhGAA were determined based on GAA activity and reported as the fraction of total enzyme.

[2] = test system: normal and Pompe fibroblast cell lines; test: Cellular uptake of rhGAA in normal and Pompe fibroblast cell lines; type: cell-based
Experimental: The relative cellular uptake of ATB200 and Lumizyme® rhGAA were compared using normal and Pompe fibroblast cell lines. […] After 16-hr incubation, external rhGAA was inactivated with TRIS base and cells were washed 3-times with PBS prior to harvest. Internalized GAA measured by 4MU-α-Glucoside hydrolysis and was graphed relative to total cellular protein and the results appear in FIGS. 11A-B.

Gaa KO mice = test: Muscle function in Gaa-knockout mice, 12 biweekly administrations (grip strength, wire hang); type: in vivo, mouse; conditions: 12 biweekly administrations, ERT 20 mg/kg (miglustat 10 mg/kg)
Source text: In FIG. 18A, * indicates statistically significant compared to Lumizyme® alone (p<0.05, 2-sided t-test). In FIGS. 19A-19G, * indicates statistically significant compared to Lumizyme® alone (p<0.05, multiple comparison using Dunnett's method under one-way ANOVA analysis).

[3] = Apparent plasma half-life in vivo

Sequence of CIMPR (P11717 41-2491, species assumed): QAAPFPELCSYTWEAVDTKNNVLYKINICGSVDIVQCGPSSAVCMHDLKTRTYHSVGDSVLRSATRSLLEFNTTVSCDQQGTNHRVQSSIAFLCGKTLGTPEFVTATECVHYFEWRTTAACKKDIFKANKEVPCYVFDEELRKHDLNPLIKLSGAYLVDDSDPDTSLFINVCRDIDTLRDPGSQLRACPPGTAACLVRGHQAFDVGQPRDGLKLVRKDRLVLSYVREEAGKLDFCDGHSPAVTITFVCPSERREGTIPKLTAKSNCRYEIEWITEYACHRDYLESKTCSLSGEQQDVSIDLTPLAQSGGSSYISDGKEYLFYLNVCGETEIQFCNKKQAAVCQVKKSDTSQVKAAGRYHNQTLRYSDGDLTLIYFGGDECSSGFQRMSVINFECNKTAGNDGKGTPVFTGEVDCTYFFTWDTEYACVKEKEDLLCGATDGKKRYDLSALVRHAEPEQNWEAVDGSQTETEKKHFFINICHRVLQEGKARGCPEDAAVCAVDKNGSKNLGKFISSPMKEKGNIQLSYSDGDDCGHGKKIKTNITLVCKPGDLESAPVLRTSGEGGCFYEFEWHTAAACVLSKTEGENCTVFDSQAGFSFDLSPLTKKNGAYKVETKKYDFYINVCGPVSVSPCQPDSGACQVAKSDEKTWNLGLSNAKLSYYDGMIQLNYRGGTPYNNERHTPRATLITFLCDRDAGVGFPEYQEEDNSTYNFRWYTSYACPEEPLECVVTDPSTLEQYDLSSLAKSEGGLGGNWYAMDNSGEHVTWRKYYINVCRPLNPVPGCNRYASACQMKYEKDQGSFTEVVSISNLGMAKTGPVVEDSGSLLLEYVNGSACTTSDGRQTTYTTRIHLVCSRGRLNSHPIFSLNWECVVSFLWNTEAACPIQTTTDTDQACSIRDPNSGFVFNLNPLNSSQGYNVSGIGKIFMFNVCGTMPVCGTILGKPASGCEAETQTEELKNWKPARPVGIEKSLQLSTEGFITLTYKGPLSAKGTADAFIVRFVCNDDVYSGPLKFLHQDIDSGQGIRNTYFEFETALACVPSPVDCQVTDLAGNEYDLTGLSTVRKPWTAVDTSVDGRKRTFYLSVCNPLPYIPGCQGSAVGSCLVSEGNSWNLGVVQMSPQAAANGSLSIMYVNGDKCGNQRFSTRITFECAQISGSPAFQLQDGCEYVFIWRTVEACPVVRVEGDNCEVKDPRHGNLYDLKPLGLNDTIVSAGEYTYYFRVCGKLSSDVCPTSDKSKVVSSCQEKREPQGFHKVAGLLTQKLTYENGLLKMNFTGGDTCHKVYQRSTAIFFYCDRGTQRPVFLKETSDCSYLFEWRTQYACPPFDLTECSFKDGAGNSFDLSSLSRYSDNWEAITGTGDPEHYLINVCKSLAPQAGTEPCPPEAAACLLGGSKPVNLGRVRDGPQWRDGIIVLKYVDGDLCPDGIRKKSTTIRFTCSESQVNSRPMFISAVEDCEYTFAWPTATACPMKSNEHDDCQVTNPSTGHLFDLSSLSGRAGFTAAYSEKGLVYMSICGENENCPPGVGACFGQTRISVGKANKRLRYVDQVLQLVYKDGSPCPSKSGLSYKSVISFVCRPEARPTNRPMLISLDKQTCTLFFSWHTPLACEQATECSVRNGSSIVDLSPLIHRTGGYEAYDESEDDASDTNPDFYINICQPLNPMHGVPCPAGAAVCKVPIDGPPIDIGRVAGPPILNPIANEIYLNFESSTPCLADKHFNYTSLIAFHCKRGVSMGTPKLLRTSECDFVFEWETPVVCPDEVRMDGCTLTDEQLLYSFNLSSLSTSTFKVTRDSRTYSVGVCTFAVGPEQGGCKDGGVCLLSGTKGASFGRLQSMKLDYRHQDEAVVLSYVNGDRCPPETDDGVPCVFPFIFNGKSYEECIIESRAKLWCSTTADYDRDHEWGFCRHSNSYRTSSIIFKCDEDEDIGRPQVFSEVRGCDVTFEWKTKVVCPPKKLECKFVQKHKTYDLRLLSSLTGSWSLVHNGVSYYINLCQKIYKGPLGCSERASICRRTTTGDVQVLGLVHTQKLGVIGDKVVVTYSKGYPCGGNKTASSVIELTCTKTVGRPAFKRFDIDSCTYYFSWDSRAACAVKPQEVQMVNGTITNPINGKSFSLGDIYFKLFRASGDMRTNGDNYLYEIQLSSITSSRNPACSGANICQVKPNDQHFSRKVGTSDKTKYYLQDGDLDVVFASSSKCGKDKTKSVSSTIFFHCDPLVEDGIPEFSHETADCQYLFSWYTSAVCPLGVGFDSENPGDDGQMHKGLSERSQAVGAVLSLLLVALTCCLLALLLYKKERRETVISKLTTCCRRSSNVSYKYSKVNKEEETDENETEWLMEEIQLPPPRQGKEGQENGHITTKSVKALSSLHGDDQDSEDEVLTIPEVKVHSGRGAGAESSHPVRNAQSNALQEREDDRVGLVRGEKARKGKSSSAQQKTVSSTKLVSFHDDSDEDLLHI

Q: Which results are given for `CCCCN1C[C@H](O)[C@@H](O)[C@H](O)[C@H]1CO` [Miglustat, miglustat]?
A: plasma miglustat kinetics ([1]; 130 mg and 260 mg oral): dose-proportional kinetics; CL/F ([1]; High MD): 10.3 (26.4) L/h; CL/F ([1]; High SD): 10.6 (33) L/h; CL/F ([1]; Low MD): 10.2 (23.9) L/h; CL/F ([1]; Low SD): 10.6 (23) L/h

Q: For “Lumizyme®: conventional rhGAA product containing alglucosidase alfa, Genzyme”, which “rhGAA that contained M6P / bound CIMPR (eluted with M6P)” value (CIMPR) is on record?
A: 22%

Q: And the “rhGAA that did not bind to the CIMPR” value (CIMPR)?
A: 78%

Q: And the “concentration that saturates cellular receptors” value ([2]; 16-hr incubation)?
A: about 250 nM

Q: And the “uptake efficiency constant (Kuptake)” value ([2]; extrapolated, FIG. 11C)?
A: 56 nM

Q: And the “functional muscle strength (grip strength and wire hang tests)” value (Gaa KO mice)?
A: observed to decline under identical conditions throughout most of the study

Q: What does the source list for “Myozyme®: conventional rhGAA product containing alglucosidase alfa, Genzyme”?
A: rhGAA that contained M6P / bound CIMPR (eluted with M6P) (CIMPR): 27%; rhGAA that did not bind to the CIMPR (CIMPR): 73%

Q: With “[199-arginine,223-histidine]prepro-α-glucosidase (human) [alglucosidase alfa, reference compound]” as the molecule, how does the “apparent plasma half-life (t1/2)” value [3] read?
A: ~1 h
